For experiment [1], the target named is T1, D59C MelBSt (Salmonella typhimurium, UniProt P30878, D59C).
T1 construct: Cys scanning mutagenesis for the full-length MelBSt; His10 (C); made in house; host or cells: E. coli DW2
The experiment is described as follows: biochemical. The class given is binding. As for the experimental part: All ITC ligand-binding assays were performed with the TA Instruments (Nano-ITC device) at 25 °C. In a typical experiment, the titrand (MelBSt) in the ITC sample cell was titrated with the specified titrant (placed in the Syringe) by an incremental injection of 2-µL aliquots at an interval of 300 s at a constant stirring rate of 250 r.p.m. All samples were degassed using a TA Instruments Degassing Station (model 6326) for 15 min prior to the titration. Data processing was performed with the NanoAnalyze (version 3.6.0 software) provided with the ITC equipment. The normalized heat changes were subtracted from the heat of dilution elicited by last few injections, where no further binding occurred; the corrected heat changes were plotted against the molar ratio of titrant versus titrand. The values for association constant (Ka) value were determined by fitting the data with a one-site independent-binding model. At most cases, the binding stoichiometry (N) number was fixed to 1 since it is a known parameter, which can restrain the data fitting and achieve more accurate results. The dissociation constant Kd = 1/Ka.
Supplementary Figure 1. ITC measurements. ITC measurements were performed at 25 °C as described in Methods. (a) Binding thermography. For all tests, ligands and proteins are buffer- […]
(1 picture or pasted object on this page, not shown here) […]
matched. For melibiose binding measurements, a solution of 80 mM or 10 mM in the absence or presence of NaCl at 100 mM, was injected into the ITC sample cell containing the WT MelBSt at 80 μM without or with 100 mM NaCl, respectively. With the D59C mutant, […] was used. For α-NPG binding measurements, 0.5 mM or 0.4 mM solution was used to titrate the WT or D59C mutant at 50 μM in the absence or presence or 100 mM NaCl, respectively. For the Na+ or Li+ binding measurements, 5 mM or 2 mM solution was used to titrate WT MelBSt at 80 μM without or with 50 mM melibiose, respectively; 40 mM solutions was used to titrate the D59C mutant. (b) binding isotherm. Curve fit was carried out with a one-site independent-binding model included in the NanoAnalyze software (version 3.6.0).

Experiment [2] concerns the target T2, MelBSt D59A (Salmonella typhimurium, UniProt P30878, D59A).
T2 construct: Cys scanning mutagenesis for the full-length MelBSt; expressed in transfected cells; host or cells: E. coli DW2 (melA+, melB-, lacZ-Y-)
Briefly: [3H]Melibiose transport time course with DW2 intact cells expressing MelBSt D59A. The class given is cell-based. As to conditions: 0.4 mM [3H]melibiose. How it is done: Fig. 1 Functional characterizations. a [^3H] Melibiose transport time course with intact cells. E. coli DW2 strain (melB^−, lacZ^−Y^−) expressed with the WT, D59C, or D59A MelBSt mutants were subjected to [^3H]melibiose active transport assay at 0.4 mM and 10 mCi/mmol in the presence of 20 mM or 100 mM NaCl or LiCl by a fast filtration method. Inset, melibiose fermentation assay. Transformants with DW2 strain were plated on MacConkey agar plates containing 30 mM melibiose as the sole carbohydrate source and pH sensor neutral red, and incubated at 37 °C for 16–18 h before imaging. Number of tests = 3, from different batch of cells or duplicate measurements from same batch of sample. b Ligand binding by Trp→dansyl galactoside (D^2G) FRET assay. Purified proteins at 1 μM concentration in 20 mM Tris-HCl, pH 7.5, 100 mM CholCl, 10% glycerol, and 0.03% UDM were subjected to steady-state fluorescence measurements as described in Methods. On the time-trace, 1.8 μL of 1 mM D^2G at 10 μM was added into 180 μL of protein solutions at 1-min point, followed by supplying 10 μL of 5 mM DDMB or 5 mM α-NPG to displace the bound D^2G. For testing Na^+ or Li^+ binding, they are added into the solution before displacement with the second sugar. The structure of DDMB or α-NPG is shown in a chair form, and the carbon positions are labeled. Glycosidic bonds are indicated by arrows. Both are α-galactosides containing a substituent at the anomeric carbon-1. The data were from duplicate measurements.
The overexpression of MelBSt was carried out in the E. coli DW2 strain (melA^+, melB^−, and lacZ^−Y^−) from a constitutive expression plasmid pK95ΔAH/MelBSt/CHis10[9],[28],[33]. The D59C or D59A mutant with Cys or Ala at the position 59, respectively, was constructed previously[9] or in this study by QuikChange Site-Directed Mutagenesis kit and confirmed by DNA sequencing analysis. E. coli DW2 cells containing a given plasmid were grown in Luria-Bertani (LB) broth (5 g yeast extract and 10 g tryptone per liter with 171 mM NaCl) with 100 mg/L of ampicillin in a 37 °C shaker. The overnight cultures were diluted by 5% with LB broth supplemented with 0.5% glycerol and 100 mg/L of ampicillin, and constitutive overexpression was obtained by shaking at 30 °C for another 5 h.
E. coli DW2 cells expressing MelBSt were washed with 100 mM KPi, pH 7.5, to remove Na^+ contamination as described previously. The cell pellets were resuspended with the assay buffer (100 mM KPi, pH 7.5, 10 mM MgSO4) and adjusted to A420 of 10 (∼0.7 mg protein/ml). Using a fast filtration, transport time course at 0.4 mM melibiose (at specific activity of 10 mCi/mmol) was carried out in the absence or presence of NaCl or LiCl at 20 mM or 100 mM, respectively, and intracellular melibiose was determined as described previously.

The target in experiment [3] is T3, WT MelBSt (Salmonella typhimurium, UniProt P30878).
T3 construct: Cys scanning mutagenesis for the full-length MelBSt; His10 (C); made in house; host or cells: E. coli DW2
T3 sequence (P30878 whole entry): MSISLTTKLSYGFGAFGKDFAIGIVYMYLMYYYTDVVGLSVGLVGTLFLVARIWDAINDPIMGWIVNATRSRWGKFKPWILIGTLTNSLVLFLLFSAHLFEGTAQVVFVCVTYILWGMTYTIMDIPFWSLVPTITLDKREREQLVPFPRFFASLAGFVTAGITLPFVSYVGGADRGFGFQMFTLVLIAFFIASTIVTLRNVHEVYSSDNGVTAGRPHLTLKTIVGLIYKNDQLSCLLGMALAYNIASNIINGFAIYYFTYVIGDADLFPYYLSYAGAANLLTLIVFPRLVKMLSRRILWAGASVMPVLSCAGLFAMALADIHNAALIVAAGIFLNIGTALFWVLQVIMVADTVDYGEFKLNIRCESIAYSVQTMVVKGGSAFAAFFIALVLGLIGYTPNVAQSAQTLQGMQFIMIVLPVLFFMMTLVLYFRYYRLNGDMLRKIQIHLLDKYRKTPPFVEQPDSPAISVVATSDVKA
As to conditions: ITC 25 °C, data from publication or averaged with more tests, read-out: Kd of substrate binding, Melibiose, cited from earlier work.

Read-outs that look alike come from different tables or passages of the source.

T2 sequence (P30878 whole entry D59A): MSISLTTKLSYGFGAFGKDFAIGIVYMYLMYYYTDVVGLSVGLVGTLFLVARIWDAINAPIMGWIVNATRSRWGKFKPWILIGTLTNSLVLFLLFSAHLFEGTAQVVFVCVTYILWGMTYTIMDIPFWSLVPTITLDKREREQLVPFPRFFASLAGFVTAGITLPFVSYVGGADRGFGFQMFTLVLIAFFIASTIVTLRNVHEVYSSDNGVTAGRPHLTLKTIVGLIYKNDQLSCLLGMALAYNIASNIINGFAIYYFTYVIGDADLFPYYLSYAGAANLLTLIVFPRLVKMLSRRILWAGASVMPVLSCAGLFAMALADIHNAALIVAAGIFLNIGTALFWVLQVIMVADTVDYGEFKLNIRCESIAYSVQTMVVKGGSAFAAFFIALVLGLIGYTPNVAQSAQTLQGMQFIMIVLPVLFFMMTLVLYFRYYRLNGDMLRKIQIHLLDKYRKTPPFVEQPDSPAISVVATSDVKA
T1 sequence (P30878 whole entry D59C): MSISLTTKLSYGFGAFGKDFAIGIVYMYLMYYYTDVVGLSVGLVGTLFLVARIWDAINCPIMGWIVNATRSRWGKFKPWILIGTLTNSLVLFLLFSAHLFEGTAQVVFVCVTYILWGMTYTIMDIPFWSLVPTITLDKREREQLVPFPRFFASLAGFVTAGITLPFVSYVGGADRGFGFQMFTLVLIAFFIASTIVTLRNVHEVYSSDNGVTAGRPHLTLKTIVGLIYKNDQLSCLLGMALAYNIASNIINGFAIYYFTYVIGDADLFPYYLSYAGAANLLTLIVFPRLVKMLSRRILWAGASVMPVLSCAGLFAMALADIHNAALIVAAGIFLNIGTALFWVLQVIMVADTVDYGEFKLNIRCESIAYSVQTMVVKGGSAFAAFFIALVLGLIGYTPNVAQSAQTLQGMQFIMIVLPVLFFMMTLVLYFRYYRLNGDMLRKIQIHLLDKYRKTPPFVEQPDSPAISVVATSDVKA

As to `OC[C@H]1O[C@H](OCC2O[C@@H](O)[C@H](O)[C@@H](O)[C@@H]2O)[C@H](O)[C@@H](O)[C@H]1O` (some centres unmarked) [Melibiose], the Kd in experiment [1] (Apo, ITC 25 °C, read-out: Kd of substrate binding, Melibiose) was 4.66 ± 0.1 mM; in experiment [1] (Na+ (100 mM), ITC 25 °C, read-out: Kd of substrate binding, Melibiose), 4.96 ± 0.11 mM; in experiment [1] (read-out: Kd value for melibiose binding) it was 6 mM; in experiment [3] (Apo), 9.28 ± 0.23 mM; in experiment [3] (Na+ (100 mM)), 1.09 ± 0.06 mM. For the same compound, in experiment [1] (apo state, melibiose binding), the “Kd lower than that of WT” value came out at 2 fold. In addition, the Melibiose transport came out at 9.09 in experiment [2] (H+, Time 0.17); 8.49 in experiment [2] (H+, Time 0.50); 2.84 in experiment [2] (H+, Time 1.00); 1.86 in experiment [2] (H+, Time 2.00); 1.70 in experiment [2] (H+, Time 5.00); 1.53 in experiment [2] (H+, Time 10.00). For the same compound, the Melibiose transport in experiment [2] (H+, Time 30.00) is recorded as 1.58; in experiment [2] (Li+, 20 mM, Time 0.17) it was 0.82; in experiment [2] (Li+, 20 mM, Time 0.50) it was 1.81; in experiment [2] (Li+, 20 mM, Time 1.00), 0.66; in experiment [2] (Li+, 20 mM, Time 2.00), 4.29; in experiment [2] (Li+, 20 mM, Time 5.00), 3.59. Besides, the Melibiose transport in experiment [2] (Li+, 20 mM, Time 10.00) is given as 1.72; in experiment [2] (Li+, 20 mM, Time 30.00), 4.17; in experiment [2] (Na+, 20 mM, Time 0.17) it was 4.09; in experiment [2] (Na+, 20 mM, Time 0.50) it was 2.70; in experiment [2] (Na+, 20 mM, Time 1.00), 2.54; in experiment [2] (Na+, 20 mM, Time 2.00), 5.43. Also, the Melibiose transport came to 1.63 in experiment [2] (Na+, 20 mM, Time 5.00) and 1.16 in experiment [2] (Na+, 20 mM, Time 10.00).

As for `O=[N+]([O-])c1ccc(OC2OC(CO)C(O)C(O)C2O)cc1` [α-NPG, 4-nitrophenyl-α-D-galactopyranoside], the Kd in experiment [1] (Kd of substrate binding, α-NPG, Apo, ITC 25 °C) came to 0.0105 ± 0.00134 mM; in experiment [1] (Kd of substrate binding, α-NPG, Na+ (100 mM), ITC 25 °C) it was 0.01197 ± 9e-05 mM. Also, the “increased affinity versus WT” value in experiment [1] (apo D59C mutant) is reported as “about 4 fold”.

The record behind these values is publication PMC8329300, “X-ray crystallography reveals molecular recognition mechanism for sugar binding in a melibiose transporter MelB” (Communications Biology, 2021).
